Data from patent publication US20140242712A1, “FLUORESCENCE DETECTION OF POISON OAK OIL” (priority 1999, published 2014).

Legend:
[1] = in protic solvent; cited from earlier work
[2] = storage stability of the boronic acid on exposure to air; type: physicochemical; settings: without taking any precautions to avoid exposure to air

| SMILES | rate constant k of reduction of nitroxide by phenols (hydrogen transfer) [1] [M⁻¹ s⁻¹] | stability of the sample on storage [2] |
| --- | --- | --- |
| Cc1c(C)c2c(c(C)c1O)CCC(C)(C(=O)O)O2 (stereo not shown) [TROLOX] | 0.2 |  |
| CCCCB(O)O [n-butyl boronic acid] |  | stable for over a year |
| Cc1cc(C(C)(C)C)c(O)c(C(C)(C)C)c1 [BHT] | 0.003 |  |
| O=C(O)c1cc(O)c(O)c(O)c1 [gallic acid] | 0.003 |  |
